Assay results published in patent publication US20080058274A1, “Combination Therapy” (priority 2004, published 2008).
Where a name gives a salt, the structure may show the parent alone. Read-outs that look alike come from different tables or passages of the source.

Experiments:
[1] = system: doxorubicin-resistant human breast carcinoma M-109 cell line; test: Cytotoxicity, methylene blue (MB) staining assay; assay type: cell-based; settings: M-109 doxorubicin-resistant cells
Method: Cytotoxicity studies: The cytotoxicity of C6Cer-DXN-SSL against doxorubicin-resistant human breast carcinoma M-109 cell line was tested by the methylene blue (MB) staining assay [Gorodetsky, R. et al. Int. J. Cancer. 75:635-642 (1998)]. A known number of exponentially growing cells in 200 μL of medium were plated in 96-microwell, flat-bottomed plates. For each of the variants tested, 4 wells were used. Following 24 hr of incubation in culture, different concentrations of drugs or formulations were added to each well containing untreated cells.
Cells were exposed to drugs for 96 hr. […] The MB bound to the fixed cells was extracted by incubation at 37° C. with 200 μL of 0.1 N HCl for 1 h, and the net optical density of the dye in each well was determined by a plate spectrophotometer (Labsystems Multyskan Bichromatic, Finland) at 620 nm.
Statistical analysis: Median survival times and the statistical significance of differences in survival curves were calculated by means of the log-rank test using Prism Software (GraphPad, San Diego, Calif.). […] For assessment of synergy, the combination index (CI) was determined by median effect analysis [Chow T C, Talalay P. Quantitative analysis of dose-effect relationships: the combined effects of multiple drugs or enzyme inhibitors. […]

C-26 colon carcinomas = test: In vivo antitumor efficacy, mice inoculated i.p. with C-26 colon carcinoma; set-up: species or system BALB/c mice; settings: i.v. treatment, DXN 8 mg/kg
Method: In vivo evaluation of antitumor efficacy of Liposomal DXN: All the experimental procedures which make use of animals (mice) were done in accordance with the standards required by the Institutional Animal Care and Use Committee of the Hebrew University and Hadassah Medical Organization and approved by the Committee.
To test therapeutic efficacy, female BALB/c mice (in the weight range of 16-20 g) were injected i.p. with 1*10^6 C-26 colon carcinomas. The viability of these cells was >90% by trypan blue exclusion. Therapeutic efficacy of i.v. injected SSL (DXN-C6Cer-SSL) containing both DXN in intraliposome aqueous phase (DXN/PL ratio of 0.2) and 11.5 mole % of C6Cer in comparison to Doxil (alone) and free DXN was studied. In all 3 treatments DXN dose was 0.16 mg/mouse (8 mg/kg) and dose of C6Cer injected into mice treated with DXN-C6Cer-SSL was 0.25 mg.mouse (12.5 mg/kg). Intravenous treatment began at day 4 after tumor cell inoculation and was repeated three times at 5-days intervals. The median survival and percentage increase in life span of treated (T) over control (C) animals (Tx100/C)-100 were calculated.
Statistical analysis: Median survival times and the statistical significance of differences in survival curves were calculated by means of the log-rank test using Prism Software (GraphPad, San Diego, Calif.). Differences were considered significant at P<0.05.

[2] = Doxorubicin pharmacokinetics and biodistribution in tumor-bearing mice; assay type: in vivo, BALB/c mice
Method: Pharmacokinetics and biodistribution studies in tumor-bearing mice: Eight to 10-week-old BALB/c female mice, obtained through the Animal Breeding House of the Hebrew University (Jerusalem, Israel), were housed at Hadassah Medical Center at a specific pathogen free (SPF) facility with food and water ad libitum. Each mouse was injected with one inoculum of tumor cells (1×10^6 murine C-26 cells) subcutaneously into the left flank. 7 days later SSL formulations containing both DXN (0.16 mg/mouse) and C6Cer, (0.25 mg/mouse), Doxil (0.16 mg/mouse) and free DXN (0.16 mg/mouse) were injected i.v. At 1, 4, 24 and 48 hr after injection, the animals were anesthetized with 4% chloral hydrate (Fluka, USA), bled by eye inoculation, and plasma was separated from blood cells by 5 min centrifugation at 5,000 rpm. Various organs (liver, heart, lungs, kidneys) and tumor were removed. Each time period in each treated group consisted of 3 mice. Samples were frozen at −80° C. until assayed. Thereafter, plasma samples were diluted in 90% isopropanol containing 10% 0.75N HCl in order to dissolve all liposome's lipids and release the DXN to the solution, and concentration of DXN was determined according to a standard calibration curve of DXN (excitation at 485±10 mu and emission at 590±10 nm) from fluorescence intensity using Synergy HT plate reader in its fluorescence mode (Bio-Tek, Vermont, USA).
Doxorubicin pharmacokinetics and biodistribution studies in tumor-bearing mice: BALB/c female mice were injected with one inoculum of tumor cells (1×10^6 C-26 cells) subcutaneously into the left flank. Seven days later, liposomal formulations containing both DXN and C6Cer [HSPC:^2kPEG-DSPE:Chol:C6Cer (76:7.5:5:11.5)-DXN]; Doxil or Free DXN were injected i.v., and bled by eye inoculation, plasma was isolated and 50 μl was taken from plasma for further analysis. DXN levels were determined after “extraction” of plasma with acidic isopropanol as described in Methods.

COc1cccc2c1C(=O)c1c(O)c3c(c(O)c1C2=O)C[C@@](O)(C(=O)CO)C[C@@H]3O[C@H]1C[C@H](N)[C@H](O)[C@H](C)O1 [free DXN, 8S,10S)-10-[(3-amino-2,3,6-trideoxy-a-L-lyxo-hexopyranosyl)oxy]-8-glycolyl-7,8,9,10-tetrahydro-6,8,11-trihydroxy-1-methoxy-5,12-naphthacenedione hydrochloride]
IC50 ([1]; M109, agent given alone, 96 hr exposure, read-out: IC50): 2.2 µM
IC50 ([1]; M109, combined with liposomal C6Cer at its IC10, 96 hr, read-out: IC50 of DXN in the presence of IC10 concentration of liposomal C6Cer): 0.9 µM
survival 80 days after treatment initialization (C-26 colon carcinomas; FIG. 3): 0%
median survival (C-26 colon carcinomas; untreated 16 day): 35 days
DXN remaining in plasma ([2]; 1 hr post-injection, i.v. 0.16 mg DXN/mouse, FIG. 4A): 3%
DXN level in heart tissue ([2]; 4 hr post-treatment, i.v., FIG. 4B): 5.7%
DXN level in tumor tissue ([2]; 24 hr post-injection (maximum), i.v., s.c. C-26 tumor, FIG. 4B): 1%
DXN remaining in circulation ([2]; plasma, 48 hr post-injection, i.v. 0.16 mg DXN/mouse, FIG. 4A): below detection
